Test results from PMC7659979, “Discovery and Evaluation of Enantiopure 9H-pyrimido[4,5-b]indoles as Nanomolar GSK-3β Inhibitors with Improved Metabolic Stability” (International Journal of Molecular Sciences, 2020).

Columns and labels:
[1] = test system: GSK3β activity (phospho-GSK3α/β) in neuronal SH-SY5Y cells; assay: Cellular GSK-3α/β inhibition by western blotting in SH-SY5Y cells; format: cell-based, human; conditions: 1 μM, 1 h of treatment
Description: Initially, we determined the concentrations of (R)-28 not associated to neurotoxicity by the MTT assay. Therefore, concentrations of 1 and 5 µM were selected for the assays in SH-SY5Y cells, which were performed according to previously described protocols.
5. Investigation of Cellular GSK-3α/β Inhibition by (R)-28 and Its Neuroprotective Effects
Human neuronal SH-SY5Y cells (Sigma Aldrich, St. Louis, MO, USA) were routinely grown in Dulbecco’s modified Eagle’s Medium supplemented with 10% fetal bovine serum, 2 mM L-glutamine, 50 U/mL penicillin and 50 µg/mL streptomycin at 37 °C in a humidified incubator with […]
SH-SY5Y cells were seeded in a 96-well plate at 2 × 10^4 cells/well, incubated for 24 h and then treated with various concentrations (1.25–40 µM) of (R)-28 for 24 h. Cell viability, in terms of mitochondrial activity, was evaluated by MTT assay, as previously described.
5.3. Neuroprotective Activity toward H 2O2
(§1) SH-SY5Y cells were seeded in a 96-well plate at 2 × 10^4 cells/well, incubated for 24 h and subsequently treated with (R)-28 (5 µM) and H 2O2 (100 µM) for 1 h. Then, cells were starved in complete medium for 22 h. The neuroprotective activity was measured by using the MTT assay as previously described . Data are expressed as a percentage of neurotoxicity versus untreated cells.
5.4. […]

[2] = test system: SH-SY5Y cells; assay: Neuroprotective activity toward H2O2 (MTT assay); format: cell-based, human; conditions: 5 μM, concomitant treatment with H2O2 100 μM
Description: Next, we investigated the neuroprotective effects of (R)-28 in SH-SY5Y cells against the neurotoxicity induced by neurotoxins. These included hydrogen peroxide (H2O2, 100 μM) and amyloid-β 1–42 oligomers (OAβ1−42, 10 μM), that mimic general oxidative stress and Alzheimer’s disease (AD), respectively. […] Still, these neuroprotective effects against the oxidative stress underline the potential usefulness of inhibitor (R)-28 in the AD therapeutic area.
5. Investigation of Cellular GSK-3α/β Inhibition by (R)-28 and Its Neuroprotective Effects […]
SH-SY5Y cells were seeded in a 96-well plate at 2 × 10^4 cells/well, incubated for 24 h and then treated with various concentrations (1.25–40 µM) of (R)-28 for 24 h. Cell viability, in terms of mitochondrial activity, was evaluated by MTT assay, as previously described. […]
as §1, with “Then, cells were starved in complete medium for 22 h.” left out, “cells. […]” for “cells.”
SH-SY5Y cells were seeded in a 96-well plate at 3 × 10^4 cells/well, incubated for 24 h, and subsequently treated with (R)-28 (5 µM) and OAβ 1-42 (10 µM) for 4 h. The neuroprotective activity was measured by using the MTT assay as previously described. […]

## CCC(=O)N1CCC[C@@H](N(C)c2ncnc3[nH]c4cc(Br)ccc4c23)C1 [Compound (R)-28, (R)-1-(3-((7-bromo-9H-pyrimido[4,5-b]indol-4-yl)(methyl)amino)piperidin-1-yl)propan-1-one]
[1]
  active phospho-GSK3α/β (Tyr279/Tyr216): decrease
  inactive phospho-GSK3α/β (Ser21/9): increase
[2]
  neurotoxicity elicited by H2O2: significantly decreased the neurotoxicity
